Each structure is given as a SMILES string.

In experiment [1] the test system is native AMPK purified from rat liver. As to the kind of experiment: Cell-free kinase assay of purified rat liver AMPK. It counts as biochemical. Conditions: ATP 200 µM; for IC50: read-out: IC50, inhibition of rat liver AMPK complexes. The text has this: AMPK assays measured the transfer of radioactivity from labelled ATP to a peptide substrate, which was separated from unreacted ATP by binding to P81 paper. This assay was described previously, except that we used [γ-^33P]ATP rather than [γ-^32P]ATP. The peptide substrate was the AMARA peptide in all experiments other than one, which analyzed allosteric activation by AMP (Figure 2A), when, for technical reasons, the SAMS peptide was used instead. […] After each wash, the pellet was recovered via centrifugation (16,000× g, 3 min) and then resuspended. The final resuspended pellets from each biological replicate were divided into two aliquots (40 µg lysate protein) to provide technical replicates and assayed as above.

The next experiment concerns AMPK in U2OS cells. The experiment is described as follows: AMPK activity in anti-α1/-α2 immunoprecipitates from treated U2OS cells. It counts as cell-based, human. The source says: T-Rex U2OS cells carrying a Flp Recombinase Target (FRT) site were generated as described previously and grown in Dulbecco’s Modified Eagle’s Medium (DMEM) supplemented with 10% (v/v) FBS and 1% (v/v) penicillin/streptomycin.
Cells were lysed rapidly in situ on culture plates using ice-cold lysis medium containing phosphatase inhibitors, as described previously.
AMPK assays measured the transfer of radioactivity from labelled ATP to a peptide substrate, which was separated from unreacted ATP by binding to P81 paper. This assay was described previously, except that we used [γ-^33P]ATP rather than [γ-^32P]ATP. The peptide substrate was the AMARA peptide in all experiments other than one, which analyzed allosteric activation by AMP (Figure 2A), when, for technical reasons, the SAMS peptide was used instead. With purified preparations of AMPK, it was assayed in solution, but for assays in cell lysates (Figure 3D and Figure 4D), it was first immunoprecipitated using a mixture of anti-α1 and -α2 antibodies and assayed in resuspended immunoprecipitates. After the initial immunoprecipitation of lysate containing 80 µg of protein, the pellets were washed twice with 1 mL of high salt IP buffer (50 mM Tris-HCL, pH 7.4 at 4 °C, 1 M NaCl, 1 mM EDTA, 1 mM EGTA, 50 mM NaF, 5 mM Na pyrophosphate, 1 mM dithiothreitol, 0.1% (v/v) Triton X-100) and twice with 1 mL of low salt IP buffer (as above but only 150 mM NaCl), followed by a final wash in 1 mL of assay buffer (50 mM Na Hepes, pH7.4, 150 mM NaCl, 1 mM dithiothreitol, 0.02% (v/v) Brij-35). After each wash, the pellet was recovered via centrifugation (16,000× g, 3 min) and then resuspended. The final resuspended pellets from each biological replicate were divided into two aliquots (40 µg lysate protein) to provide technical replicates and assayed as above.

Experiment [2] concerns endogenous AMPK from HEK-293 cells. The experiment is described as follows: Protection of immunoprecipitated AMPK against inactivation by PP2Cα (PPM1A). Conditions: immunoprecipitated AMPK, 10 min 30 °C; read-out: half-maximal effect on protection against inactivation by PPM1A. It counts as biochemical, human. The procedure:
AMPK was immunoprecipitated from HEK-293 cell lysate (2.5 mg of lysate protein) using a mixture of anti-α1 and -α2 antibodies. After extensive washing as in Section 4.5, aliquots equivalent to 80 µg of lysate protein were incubated in a shaking incubator at 30 °C for 10 min in Hepes buffer (50 mM Na Hepes, pH 7.4, 150 mM NaCl, 1 mM dithiothreitol, 0.02% (w/v) Brij-35) with 50 mM MgCl2 and sufficient PPM1A to yield about 80% inactivation, in the presence or absence of 200 µM AMP or the indicated concentration of BAY-3827 or SBI-0206965 (total volume 50 µL). The reaction was terminated by adding 1 mL of IP buffer (50 mM Tris/HCl, pH 7.4 at room temperature, 150 mM NaCl, 1 mM EDTA, 1 mM EGTA, 5 mM Na pyrophosphate, 50 mM NaF, 1 mM dithiothreitol, 0.1% (v/v) Triton X-100) and, after additional washing in the same buffer and a final wash into Hepes buffer, AMPK activity was determined using kinase assays as above.

For `CCc1ccccc1C(=O)Nc1n[nH]c2c(C)c(F)c(C3C(C#N)=C(C)N(C)C(C)=C3C#N)cc12` [BAY-3827], in experiment [1], the “fold more potent than SBI-0206965 against purified rat liver AMPK” value was more than 20 fold. In experiment [1], the half-maximal inhibitory concentration (IC50) came to 0.017 µM. Further, the EC50 with AMPK in U2OS cells (Homo sapiens, U2OS cells treated with inhibitor and MK-8722, read-out: EC50, activation of AMPK activity in immunoprecipitates) was determined as 0.084 µM; in experiment [2] it was 0.007 µM. Further, the “Activation of AMPK activity in immunoprecipitates” value with AMPK in U2OS cells (U2OS cells treated with inhibitor and MK-8722) is on record as 2.5 fold.

For the compound `CNC(=O)c1ccccc1Oc1nc(Nc2cc(OC)c(OC)c(OC)c2)ncc1Br` [SBI-0206965], the IC50 in experiment [1] is 0.36 µM. Also, the “effect on AMPK activity in immunoprecipitates” value in the experiment on AMPK in U2OS cells (U2OS cells, MK-8722 and increasing concentrations of inhibitor) is listed as “increased with a similar biphasic pattern”. Further, in experiment [2], the EC50 came out at 0.29 µM.

As a reminder, the IC50 is the point on the concentration scale where inhibition reaches its midpoint.

The values are drawn from article PMC10778976, “BAY-3827 and SBI-0206965: Potent AMPK Inhibitors That Paradoxically Increase Thr172 Phosphorylation” (International Journal of Molecular Sciences, 2023).
